This note sets out measurements from patent US20060199819A1, “Inhibition of cyclooxygenase-2 activity” (Celgene Corporation, priority 2000, published 2006).

Assay [1] deals with cyclooxygenase-2. Nature of the assay: LPS-mediated induction of cyclooxygenase-2 in macrophages (RAW 264.7 cells). In kind it is cell-based. The settings on record: macrophages in RAW 264.7 cells; as little as 50 μM. From the text:
(§1) Cyclooxygenase-2, the rate-limiting enzyme in prostaglandin biosynthesis, is expressed in tumor associated macrophages. Because prostaglandins, notable PGE2, are important mediators of inflammatory response and angiogenesis, inhibition of their biosynthesis can be used to combat these effects. Inhibition of the cyclooxygenase-2 protein by a test compound can be conveniently observed in cells in which induction of the protein has been induced by lipopolysaccharide (LPS). Thus it is known that LPS enhances cyclooxygenase-2 transcription and this effect thus can be used as convenient model for evaluating cyclooxygenase-2 inhibition.
(§2) In one experiment, LPS-mediated induction of cyclooxygenase-2, as well as PGE2 biosynthesis, in macrophages in RAW 264.7 cells was blocked by as little as 50 μM of 3-phthalimido-2,6-dioxopiperidine. It appears, however, that LPS-enhanced cyclooxy-genase-2 transcription is not itself effected by the amide or imide. That is, the amide or imide has no effect on the induction of cyclooxygenase-2 by LPS. On the other hand, the amide or imide enhances the degradation of cyclooxygenase-2 messenger RNA. Consequently while not wishing to be bound by any theory, it appears the inhibitory effect of the amide or imide operates on the activity of cyclooxygenase-2 by some post-transcriptional mechanism.

Assay [2] concerns PGE2 biosynthesis. Nature of the assay: LPS-mediated PGE2 biosynthesis in macrophages (RAW 264.7 cells). In kind it is cell-based. Conditions: macrophages in RAW 264.7 cells, as little as 50 μM.
From the text: as §1, §2

Turning to `O=C1CCC(N2C(=O)c3ccccc3C2=O)C(=O)N1` (centres unmarked) [3-phthalimido-2,6-dioxopiperidine], the “LPS-mediated induction of cyclooxygenase-2” value in assay [1] is listed as “blocked”. Moreover, the PGE2 biosynthesis result in assay [2] is “blocked”.
